# From the NIST ThermoML archive (doi:10.1016/j.fluid.2017.10.003)
# ± gives the expanded uncertainty stated by the source.
# Details: 101.33 kPa, Liquid
SMILES,viscosity (293.15 K),viscosity (298.15 K),viscosity (303.15 K),viscosity (308.15 K),viscosity (313.15 K),viscosity (318.15 K),viscosity (323.15 K),viscosity (328.15 K),viscosity (333.15 K),viscosity (338.15 K),viscosity (343.15 K),viscosity (348.15 K),viscosity (353.15 K),viscosity (358.15 K),viscosity (363.15 K)
CCCC(=O)[O-].[NH3+]CCO [2-hydroxy ethylammonium butanoate],2619 mPa·s,1796 mPa·s,1260 mPa·s,904.36 mPa·s,596.88 mPa·s,445.06 ± 200 mPa·s,335.81 ± 130 mPa·s,256.28 ± 85 mPa·s,199.67 ± 56 mPa·s,153.8 ± 35 mPa·s,122.53 ± 22 mPa·s,98.65 ± 15 mPa·s,80.46 ± 11 mPa·s,66.2 ± 8.7 mPa·s,53.33 ± 8 mPa·s
CC(=O)[O-].[NH3+]CCO [2-hydroxyethylammonium acetate],3073 mPa·s,1974 mPa·s,1306 mPa·s,896.3 mPa·s,624.5 mPa·s,363.72 ± 150 mPa·s,271.13 ± 93 mPa·s,203.65 ± 58 mPa·s,159.15 ± 37 mPa·s,123.69 ± 23 mPa·s,98.5 ± 14 mPa·s,79.76 ± 8.3 mPa·s,65.27 ± 5.6 mPa·s,52.72 ± 4.6 mPa·s,43.69 ± 5 mPa·s
NCCO.O=CO [2-hydroxyethylammonium formate],129 ± 50 mPa·s,98.49 ± 27 mPa·s,71.9 ± 11 mPa·s,56.34 ± 2.8 mPa·s,44.88 ± 4.3 mPa·s,36.53 ± 3.5 mPa·s,30.1 ± 2.9 mPa·s,24.92 ± 2.4 mPa·s,21 ± 2.1 mPa·s,18.98 ± 1.9 mPa·s,16.3 ± 1.6 mPa·s,13.96 ± 1.4 mPa·s,12.1 ± 1.3 mPa·s,10.57 ± 1.2 mPa·s,9.3 ± 1.1 mPa·s
